Laboratory results taken from patent US9045461B2, “Phenyl-heteroaryl derivatives and methods of use thereof” (TransTech Pharma, LLC, priority 2010, dated 2015).
pEC50, pIC50: −log10 of the molar value. Structures can show the parent of a compound that is named as a salt.

Columns and labels:
sRAGE binding to S100b = target: T1, sRAGE binding to S100b (Homo sapiens, UniProt Q15109); experiment: RAGE binding assay (ELISA), S100b as the RAGE ligand; details: compounds tested in hydrochloride salt form, concentration at which 50% signal has been inhibited
T1 construct: extracellular domain can be isolated by proteolysis of RAGE to generate soluble RAGE (sRAGE) comprised of the V and C domains
T1 sequence (Q15109 23-342 limits assumed): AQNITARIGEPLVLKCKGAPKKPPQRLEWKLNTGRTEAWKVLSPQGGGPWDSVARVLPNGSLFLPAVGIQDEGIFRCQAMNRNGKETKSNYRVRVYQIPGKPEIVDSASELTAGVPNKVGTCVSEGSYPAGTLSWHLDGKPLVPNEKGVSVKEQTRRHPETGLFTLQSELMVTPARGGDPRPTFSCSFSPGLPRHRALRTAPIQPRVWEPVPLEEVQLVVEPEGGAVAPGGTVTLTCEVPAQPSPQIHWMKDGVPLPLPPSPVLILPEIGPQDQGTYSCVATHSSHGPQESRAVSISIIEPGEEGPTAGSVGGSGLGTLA
Summary of the method: (§1)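 Ligand (500 ng/well) coated in carbonate buffer pH 9.8 overnight at 4° C and blocked with 1% BSA; test compound (10-100 μM in water, 4% DMSO co-solvent) incubated with sRAGE (6 nM FAC) 1 h at 37° C. Bound sRAGE detected by anti-sRAGE/biotin-anti-mouse/AP-streptavidin with pNPP, A405. IC50 = 50% signal inhibition.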

[1] = test system: RAGE signaling in THP-1 cells; experiment: Functional assay: TNF-alpha secretion by S100b-stimulated THP-1 cells; assay type: cell-based; details: Homo sapiens; THP-1 cells stimulated with bovine S100b 100 μg/mL; TNF-alpha measured by ELISA 24 hours after stimulation; read-out: EC50 for TNF expression
Description: Previously the literature has cited that THP-1 cells in response to RAGE ligands secrete TNF alpha (Yeh C-H, et al. Diabetes. Vol. 50, June 2001, pp. 1495-1504). The following assay method may be used to identify compounds of Formula (I) or pharmaceutically acceptable salts thereof which are useful as antagonists of RAGE signaling.
The myeloid cell line, THP-1 (ATTC # TIB-202), may be cultured in RPMI-1640 media (ATCC, Cat #30-2001) supplemented with fetal bovine serum to a final concentration of 10% by volume and Penicillin-Streptomycin (Gibco, Cat #0.15140-122). Alternatively, media may be formulated using RPMI 1640 (Bio-Whitaker #12-702F) supplemented with 2 mM L-glutamine (Gibco #12381-018) adjusted to contain 1.5 g/L sodium bicarbonate (Gibco #25080-094), 4.5 g/L glucose, 10 mM HEPES (Cellgro #25-060-L1) and 1.0 mM sodium pyruvate (Gibco #11360-070) and supplemented with 0.05 mM 2-mercaptoethanol, […] fetal bovine serum, 10% per ATCC instructions. During culture, the culture cells are maintained at a density between 5×10^4 and 1×10^6 viable cells/mL. […]
The amount of TNF-alpha secreted by the THP-1 cells was measured 24 hours after the addition of the stimulant proteins to the cell culture using a commercially available ELISA kit (R&D Systems, Minneapolis, Minn. # DY210). […] The plate is read at 450 nm within 30 minutes. […]

[2] = target: T2, sRAGE binding to β-amyloid (Homo sapiens, UniProt Q15109); experiment: RAGE binding assay (ELISA), β-amyloid as the RAGE ligand; details: compounds tested in hydrochloride salt form, concentration at which 50% signal has been inhibited
T2 construct: extracellular domain can be isolated by proteolysis of RAGE to generate soluble RAGE (sRAGE) comprised of the V and C domains
T2 sequence (Q15109 23-342 limits assumed): as above
Summary of the method: as §1

Row | SMILES | pIC50 (sRAGE binding to S100b) | pEC50 [1] | pIC50 [2]
1 | CCCCc1nnc(OC2CCN(C)CC2)cc1-c1ccc(OC2CCCCC2)cc1 [Example 14, 3-Butyl-4-(4-cyclohexyloxy-phenyl)-6-(1-methyl-piperidin-4-yloxy)-pyridazine dihydrochloride] | 6.09 | 5.90 | 6.09
2 | CCCCc1nnc(OCC2CCN(C)CC2)cc1-c1ccc(OCc2ccccc2)cc1 [Example 2, 4-(4-Benzyloxy-phenyl)-3-butyl-6-(1-methyl-piperidin-4-ylmethoxy)-pyridazine] | 5.88 |  | 5.91
3 | CCCCc1nnc(OC2CCN(CCc3nnc(C)o3)CC2)cc1-c1ccc(OC2CCCCC2)cc1 [Example 20, 3-Butyl-4-(4-cyclohexyloxy-phenyl)-6-{1-[2-(5-methyl-[1,3,4]oxadiazol-2-yl)-ethyl]-piperidin-4-yloxy}-pyridazine dihydrochloride] | 5.84 |  | 5.65
4 | CCCCc1nnc(OC2CCN(C)CC2)cc1-c1ccc(OCC2CCN(C(C)=O)CC2)cc1 [Example 55, 1-(4-{4-[3-butyl-6-(1-methyl-piperidin-4-yloxy)-pyridazin-4-yl]-phenoxymethyl}-piperidin-1-yl)-ethanone dihydrochloride] | 5.43 |  | 5.04
5 | CCCCc1nnc(OC2CCN(CCC(=O)OCC)CC2)cc1-c1ccc(OC2CCCCC2)cc1 [Example 15, 3-{4-[6-Butyl-5-(4-cyclohexyloxy-phenyl)-pyridazin-3-yloxy]-piperidin-1-yl}-propionic acid ethyl ester dihydrochloride] | 6.19 |  | 6.18
6 | CCCCc1nnc(OCC2(F)CCN(C)CC2)cc1-c1ccc(OC2CCCCC2)cc1 [Example 45, 3-Butyl-4-(4-cyclohexyloxy-phenyl)-6-(4-fluoro-1-methyl-piperidin-4-ylmethoxy)-pyridazine dihydrochloride] | 5.94 |  | 6.30
7 | CCCCc1nnc(OC2CCN(C)CC2)cc1-c1ccc(Oc2ccc(C)nn2)cc1 [Example 57, 3-butyl-6-(1-methyl-piperidin-4-yloxy)-4-[4-(6-methyl-pyridazin-3-yloxy)-phenyl]-pyridazine trihydrochloride] | 5.49 |  | 5.34
8 | CCCCc1nnc(O[C@H]2CCN(C)C[C@@H]2F)cc1-c1ccc(OC2CCCCC2)cc1 (racemic) [Example 41, (±)-trans-3-Butyl-4-(4-cyclohexyloxy-phenyl)-6-(3-fluoro-1-methylpiperidin-4-yloxy)-pyridazine dihydrochloride] | 5.66 |  | 5.39
9 | CCCCc1nnc(C(=O)N[C@H]2CN3CCC2CC3)cc1-c1ccc(OC2CCCCC2)cc1 [Example 86, (R)-6-Butyl-5-(4-cyclohexyloxy-phenyl)-pyridazine-3-carboxylic acid (1-aza-bicyclo[2.2.2]oct-3-yl)-amide dihydrochloride] | 5.72 |  | 5.99
10 | CN1CCC(Oc2cc(-c3ccc(OC4CCCCC4)cc3)c(C3CC3)nn2)CC1 [Example 59, 4-(4-cyclohexyloxy-phenyl)-3-cyclopropyl-6-(1-methyl-piperidin-4-yloxy)-pyridazine dihydrochloride] | 5.32 |  | 5.50
11 | CCCc1nnc(OC2CCN(C)CC2)cc1-c1ccc(OCc2ccccc2)cc1 [Example 12, 4-(4-Benzyloxy-phenyl)-6-(1-methyl-piperidin-4-yloxy)-3-propyl-pyridazine dihydrochloride] | 5.92 |  | 5.81
12 | CCCCc1nnc(OC2CCN(C)CC2)cc1-c1ccc(OC2CCCC2)cc1 [Example 51, 3-butyl-4-(4-cyclopentyloxy-phenyl)-6-(1-methyl-piperidin-4-yloxy)-pyridazine dihydrochloride] | 5.53 |  | 5.58

Now from value to molecule:

Row | pIC50 (sRAGE binding to S100b) | pEC50 [1] | pIC50 [2] | SMILES
13 | 5.77 |  | 5.49 | CCCCc1nnc(OC2CCN(C)CC2)cc1-c1ccc(OC2CCCCC2)c(C#N)c1 [Example 67, 5-[3-Butyl-6-(1-methyl-piperidin-4-yloxy)-pyridazin-4-yl]-2-cyclohexyloxy-benzonitrile dihydrochloride]
14 | 5.95 |  | 6.00 | CCCCc1nnc(C(=O)N(C2CC2)C2CCN(C)CC2)cc1-c1ccc(OC2CCCCC2)cc1 [Example 115, 6-Butyl-5-(4-cyclohexyloxy-phenyl)-pyridazine-3-carboxylic acid cyclopropyl-(1-methyl-piperidin-4-yl)-amide dihydrochloride]
15 | 5.69 |  | 5.61 | CCCCc1nnc(C(=O)NC[C@@H](O)CN(C)C)cc1-c1ccc(OC2CCCCC2)cc1 [Example 88, 6-Butyl-5-(4-cyclohexyloxy-phenyl)-pyridazine-3-carboxylic acid ((R)-3-dimethylamino-2-hydroxy-propyl)-amide dihydrochloride]
16 | 5.95 |  | 5.79 | CCCCc1nnc(C(=O)NC[C@@H]2CCN(C)C[C@@H]2OC)cc1-c1ccc(OC2CCCCC2)cc1 (racemic) [Example 104, (±)-cis-6-Butyl-5-(4-cyclohexyloxy-phenyl)-pyridazine-3-carboxylic acid (3-methoxy-1-methyl-piperidin-4-ylmethyl)-amide dihydrochloride]
17 | 5.79 |  | 5.94 | CCCCc1nnc(OC2CCN(C)CC2)cc1-c1ccc(OC2CCCCC2)c(O)c1 [Example 74, 5-[3-Butyl-6-(1-methyl-piperidin-4-yloxy)-pyridazin-4-yl]-2-cyclohexyloxy-phenol dihydrochloride]
18 | 5.81 |  | 5.71 | CCCCc1nnc(C(=O)NC2CCN(C)CC2)cc1-c1ccc(OC2CCCCC2)cc1 [Example 84, 6-Butyl-5-(4-cyclohexyloxy-phenyl)-pyridazine-3-carboxylic acid (1-methyl-piperidin-4-yl)-amide dihydrochloride]
19 | 5.71 |  | 5.61 | CCCCc1nnc(C(=O)NC[C@H](O)CN(C)C)cc1-c1ccc(OC2CCCCC2)cc1 [Example 87, 6-Butyl-5-(4-cyclohexyloxy-phenyl)-pyridazine-3-carboxylic acid ((S)-3-dimethylamino-2-hydroxy-propyl)-amide dihydrochloride]
